Data from patent publication US11999723B2, “Pyrazole-containing macrophage migration inhibitory factor inhibitors” (priority 2018, dated 2024).
Values after ≈ are worked out from the molar mass of the structure shown. Values joined by “and” are separate entries in the source; they are usually repeats but may differ in a detail not shown here. Equal entries are not always repeated. Where two headings read alike, the source gives them in different places.

Key:
MIF [1] = target: T1, MIF (Homo sapiens (Human), UniProt P14174); experiment: Tautomerase assay using 4-hydroxyphenylpyruvate (HPP), initial virtual screening study; assay type: biochemical; settings: at 50 μM; HPP substrate
T1 sequence (P14174 2-115): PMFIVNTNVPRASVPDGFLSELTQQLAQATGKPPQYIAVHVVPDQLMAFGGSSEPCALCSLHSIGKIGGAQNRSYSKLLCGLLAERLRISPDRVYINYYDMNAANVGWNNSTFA
Text: Success in the past has come from exchange of the phenol for a 6:5 fused heteroaromatic incorporating a pyrrole or pyrazole that retains the hydrogen-bond donating character of phenol. However, the MIF active site is too constricted near Asn97 for this approach to be viable; addition of a methyl group ortho to the hydroxyl group for the compound in FIG. 1 leads to a ca. 100-fold loss in activity. Instead, interest has focused on direct replacement of the phenol by a pyrazole. […] Thus, an alternative series from the virtual screening and from de novo design was pursued, which provided the biaryltriazoles including 2. However, interest in 5 was renewed since in another phenol-containing inhibitor series rapid metabolic glucoronidation and sulfation were observed. It was decided to retest 5 in an HPP tautomerase assay using optimized protocols.

[2] = Aqueous solubility, shake-flask method; assay type: physicochemical; settings: Britton-Robinson buffer at pH 6.5; for solubility at 48 h: 30 °C, aqueous buffer, thermodynamic from solid
Procedure: Aqueous solubility values of selected compounds were obtained via the shake-flask method. The solid sample (1-4 mg) was suspended in 1.5-2.0 mL Britton-Robinson (BR) buffer (0.04 M acetic acid, 0.04 M phosphoric acid, 0.04 M boric acid, pH 6.5). The mixture, containing excess undissolved compound, was stirred at 30° C. for 48 hours. The saturated solution was separated from the precipitate by filtration through a 0.45 μm polyethersulfone membrane (VWR International). The filtrate was diluted with BR buffer if necessary, then cut with an equal volume of DMSO. UV-vis absorbance was measured with an Agilent 8453 UV-visible Spectroscopy System (200-900 nm). Calibration curves were prepared with sample concentrations ranging from 0.24 μg/mL-0.25 mg/mL in 50:50 DMSO/BR buffer. Reported solubility results are the average values of two shake-flask experiments run in parallel. Piroxicam (purchased from Sigma-Aldrich) was used as a control, using BR buffer at pH 3.73.
The compounds reported here are listed in Table 2 along with the results from the tautomerase assay. The identity of assayed compounds was confirmed by ^1H and ^13C NMR and high-resolution mass spectrometry; HPLC analyses established purity as >95%. As in prior studies, the inhibition constants Ki were determined using HPP as the substrate. Inhibitory activity is monitored by measuring formation of the borate complex of the enol product at 305 nm using a Tecan Infinite F500 plate reader. In addition, the aqueous solubilities of several compounds were measured with a shake-flask procedure. Saturated solutions are filtered (polyethersulfone syringe, 0.2 μm pore) and analyzed by UV-vis spectroscopy (Agilent 8453).

MIF [3] = target: T1, MIF; experiment: HPP tautomerase assay (inhibition of the tautomerase activity of MIF); assay type: biochemical
Procedure: Inhibition of the tautomerase activity of MIF was measured using the substrate 4-hydroxyphenyl pyruvic acid (HPP) in a procedure largely adapted from previous reports. A solution of HPP (10 mM) in acetate buffer (0.5 M ammonium acetate, pH adjusted to 6.0) was prepared and allowed to incubate overnight in the dark at room temperature to allow for equilibration of the keto and enol forms. Following the incubation period, the HPP solution was stored at 4° C. and used for no more than a week. […] A negative control (containing water and DMSO in lieu of protein and inhibitor, respectively) and a positive control (containing DMSO in lieu of inhibitor) were also prepared. The reaction began upon the addition of HPP solution (final concentration: 1.0 mM and 2.5 mM). […] Absorbance was measured three times for each [inhibitor]-[HPP] combination. […] Reported Ki values represent the average value obtained from two assays performed on different days. (R)-ISO-1 (purchased from Santa Cruz Biotechnology) was used as a control.
Recombinant human MIF was expressed and purified according to published protocols. Briefly, for the purification of MIF, E. coli cell pellets were suspended in lysis buffer (20 mM Tris, pH 7.5; 20 mM sodium chloride; 10% glycerol; 2 mM magnesium chloride; 1 cOmplete mini protease inhibitor cocktail tablet per 250 mL of buffer). The solution was sonicated and centrifuged at 27,000G for 30 mins. The supernatant was filtered through a 0.22 μm syringe filter and loaded on a GE Healthcare Hi-Trap SP HP column in sequence with a GE Healthcare Hi-Trap Q SP column equilibrated with a buffer composed of 20 mM NaCl and 20 mM Tris, pH 7.5. […] To achieve highest purity, the flow-through was further purified with a GE Healthcare Superdex 200 column. The purified protein was concentrated with a 10 kDa centrifugal filter unit to 30 mg/mL, flash-frozen in liquid nitrogen, and stored at −80° C.
As in prior studies, the inhibition constants Ki were determined using HPP as the substrate. […] In addition, the aqueous solubilities of several compounds were measured with a shake-flask procedure.

[4] = HPP as substrate, MIF tautomerase, read-out: Experimental inhibition constants, Ki
[5] = Table 3, HPP as substrate, unit inferred, read-out: HPP Ki

Row | Compound | solubility at 48 h [2] | Ki (MIF [3]; [5]) | further results
1 | O=C(O)c1cccc(-c2cn[nH]c2)c1 [Compound 5, reference compound] |  |  | maximum inhibition (MIF [1]): 30%; aqueous solubility [2]: 927+88 μg/mL
2 | O=C(O)c1cc(-c2cn[nH]c2)ccc1Oc1ccc2ccccc2c1 [Compound 8g, 2-(Naphthalen-2-yloxy)-5-(1H-pyrazol-4-yl)benzoic acid] | 739 µg/mL (≈ 2240 µM) |  | Ki (MIF [3]; [4]): 4300 nM
3 | NS(=O)(=O)c1cc(-c2cn[nH]c2)ccc1Oc1ccc2ccccc2c1 [Compound 8i, 2-(Naphthalen-2-yloxy)-5-(1H-pyrazol-4-yl)benzenesulfonamide] | 55.2 µg/mL (≈ 151 µM) |  | Ki (MIF [3]; [4]): 5600 nM
4 | O=C(O)c1cc(-c2c[nH]nc2F)ccc1Oc1ccc2ccccc2c1 [Compound 8n, 5-(3-Fluoro-1H-pyrazol-4-yl)-2-(naphthalen-2-yloxy)benzoic acid] | 681 µg/mL (≈ 1960 µM) |  | 
5 | CCOc1ccc(-c2cccc(Oc3ccc(-c4c[nH]nc4F)cc3C(=O)O)c2)cc1 [Compound 8w, 2-((4′-Ethoxy-[1,1′-biphenyl]-3-yl)oxy)-5-(3-fluoro-1H-pyrazol-4-yl)benzoic acid] | 1.7 ± 0.7 µg/mL (≈ 4.06 µM) |  | Ki (MIF [3]): ~70 nM; Ki (MIF [3]; [4]): 75 nM
6 | O=C(O)c1cc(-c2c[nH]nc2F)ccc1Oc1cccc(-c2ccc(OCCCN3CCOCC3)cc2)c1 [Compound 8x, 5-(3-Fluoro-1H-pyrazol-4-yl)-2-((4′-(3-morpholinopropoxy)-[1,1′-biphenyl]-3-yl)oxy)benzoic acid] | 34.6 µg/mL and 67 µM |  | 
7 | O=C(O)c1cc(-c2c[nH]nc2F)ccc1Oc1cc2c3c(cccc3c1)CC2 [Compound 9v, 2-((1,2-dihydroacenaphthylen-4-yl)oxy)-5-(3-fluoro-1H-pyrazol-4-yl)benzoic acid] |  | 100 nM | 
8 | O=C(O)c1cc(-c2c[nH]nc2F)ccc1Oc1cccc(C(F)(F)F)c1 [Compound 9w, 5-(3-fluoro-1H-pyrazol-4-yl)-2-(3-(trifluoromethyl)phenoxy) benzoic acid] |  | 710 nM | 
9 | O=C(O)c1cc(-c2c[nH]nc2F)ccc1Oc1ccc2ccc(C3CC3)cc2c1 [Compound 9x, 2-((7-cyclopropylnaphthalen-2-yl)oxy)-5-(3-fluoro-1H-pyrazol-4-yl)benzoic acid] |  | 150 nM | 
10 | O=C(O)c1cc(-c2c[nH]nc2F)ccc1Oc1ccc2c(c1)CCCC2 [Compound 9y, 5-(3-fluoro-1H-pyrazol-4-yl)-2-((5,6,7,8-tetrahydronaphthalen-2-yl)oxy)benzoic acid] |  | 260 nM | 
11 | O=C(O)c1cc(-c2c[nH]nc2F)ccc1Oc1ccc2c(C3CC3)cccc2c1 [Compound 9z, 2-((5-cyclopropylnaphthalen-2-yl)oxy)-5-(3-fluoro-1H-pyrazol-4-yl)benzoic acid] |  | 110 nM | 
